Read-outs that look alike come from different tables or passages of the source.
What was measured:
[1] = test system: CCD-986sk dermal fibroblasts; conditions: human, 24 h
[2] = in water at 25 °C; cited from earlier work
HaCaT keratinocytes = conditions: human, 24 h
[3] = in humans; cited from earlier work
HDP cells [4] = assay: In vitro scratch wound recovery assay; format: cell-based, human
Protocol: No. BA-045855; Sartorius AG, […], Germany). […] Sartorius AG), following the manufacturer's instructions. Detached cells were removed by washing twice with PBS (pH 7.4). […] All treatments were performed in triplicate, including a vehicle control. […] Wound closure was quantified using the Incucyte® Scratch Wound Analysis Software Module, which calculates relative wound density (%) by comparing cell density within the wound area to that of the surrounding monolayer, providing an objective measure of cell migration and proliferation over time.

[5] = after 5 weeks, cited from earlier work
in vivo = conditions: Sprague-Dawley, rat, plasma, rats; for AUC(0-inf): read-out: AUCinf of SFN; for AUC(0-t): read-out: AUClast of SFN; for half-life: read-out: T1/2 of SFN (converted)
Protocol: To evaluate absolute oral bioavailability, an intravenous (IV) bolus dose of SFN (2 mg/kg, dissolved in normal saline, 200 µL) was administered via a cannulated femoral vein. Blood samples (300 µL) were collected from the femoral artery at predetermined time points: 0.17, 0.5, 1, 1.5, 2, 4, 8, and 12 h post-IV dosing, and 0.17, 0.5, 1, 2, 4, 6, 8, and 12 h post-oral dosing. Samples were immediately centrifuged at 13,000× g for 5 min at 4 °C to separate plasma, which was stored at −80 °C until further analysis.
The plasma concentrations of SFN were determined using liquid chromatography–tandem mass spectrometry (LC–MS/MS) following protein precipitation and solid-phase extraction. Briefly, 180 µL of plasma was spiked with 10 µL of SFN working solution (0.2–20 µg/mL) and 10 µL of internal standard (IS), phenethyl isothiocyanate (PHE, 5 µg/mL in acetonitrile). Proteins were precipitated by adding 200 µL of a solvent mixture consisting of 25% acetonitrile, 25% water, and 50% ethanol, followed by centrifugation at 18,340× g for 5 min at 4 °C. The resulting 400 µL supernatant was subjected to SPE using Oasis® HLB 96-well µElution plates (2 mg sorbent per well, 30 µm particle size; Waters Corporation, Milford, MA, USA), preconditioned with 200 µL each of methanol and water. After sample loading, the wells were washed sequentially with 200 µL of water and 50% aqueous methanol, and analytes were eluted with 400 µL of acetonitrile (2 × 200 µL).
Chromatographic separation was achieved on an ACQUITY UPLC system (Waters Corporation) using a BEH C18 column (50 × 2.1 mm, 1.7 µm). The mobile phase consisted of 10 mM ammonium acetate in water (30%, solvent A) and 0.1% formic acid in acetonitrile (70%, solvent B), delivered at a flow rate of 0.6 mL/min. The column temperature was maintained at 50 °C, and the injection volume was 10 µL.
Detection was performed using a Xevo TQ-S triple quadrupole mass spectrometer (Waters Corporation) equipped with an electrospray ionization source in the positive-ion mode. Multiple reaction monitoring (MRM) transitions were set at m/z 178.0 → 114.0 for SFN (cone voltage: 24 V; collision energy: 30 eV) and m/z 164.0 → 130.0 for PHE (cone voltage: 23 V; collision energy: 22 eV). The instrument settings included a capillary voltage of 3.0 kV, source temperature of 120 °C, desolvation temperature of 500 °C, desolvation gas (nitrogen) flow of 800 L/h, and cone gas (nitrogen) flow of 50 L/h. Argon was used as the collision gas. All the MRM parameters were optimized using the software IntelliStart^TM (Waters Corporation).
The calibration curve for SFN was linear over the range of 0.5–1000 ng/mL, with a lower limit of detection (LOD) of 0.5 ng/mL. The overall recovery of SFN using the described extraction method was 90 ± 3%, when compared to the direct analysis of the standard diluted in methanol.

[6] = pH 1.2 (mimics gastric fluid), within 1 h; cited from earlier work
HDP cells [7] = assay: In vitro cell proliferation assay (WST-1); format: cell-based, human; conditions: between 0.5 and 5 µg/mL
HDP cells [8] = assay: Boyden chamber migration assay; format: cell-based, human; conditions: 24 h, BSE based on SFN equivalence
Protocol: To evaluate the migratory ability of HDP cells, a Boyden chamber assay was performed. HDP cells were serum-starved for 24 h in a medium containing 0.5% (v/v) FCS. […] The lower chambers were filled with 600 µL of HDP medium supplemented with 4% FCS, 4% bovine pituitary extract, 1 ng/L recombinant human fibroblast growth factor, and 5 µg/L recombinant human insulin. After a 24 h incubation period to allow for migration, cells were fixed with 4% paraformaldehyde (BL539A, Biosharp, Hefei, Anhui, China) for 15 min and stained using Crystal Violet Staining Solution (C0121, Beyotime, Shanghai, China) for 10 min. Non-migrated cells on the upper side of the insert membrane were carefully removed using a cotton swab. To quantify migrated cells, the basal chambers were filled with 500 µL of calcein-AM-based cell dissociation solution. Cells were incubated for 1 h at 37 °C, and the fluorescence of the dissociated calcein-AM was measured using a microplate reader at an excitation wavelength of 485 nm and an emission wavelength of 520 nm.

- Cmax (in vivo; SFN IV 2 mg/kg): 339 ± 50 ng/mL
- AUC(0-inf) (in vivo; SFN IV 2 mg/kg): 421 ± 67 ng·h/mL
- AUC(0-t) (in vivo; SFN IV 2 mg/kg): 403 ± 52 ng·h/mL
- half-life (in vivo; SFN IV 2 mg/kg): 7 ± 3 h
- Cmax (in vivo; SFN oral 5 mg/kg): 155 ± 17 ng/mL
- Tmax (in vivo; SFN oral 5 mg/kg): 2 h
- bioavailability (in vivo; SFN oral 5 mg/kg, vs SFN IV): 87 ± 5%
- AUC(0-inf) (in vivo; SFN oral 5 mg/kg): 934 ± 41 ng·h/mL
- AUC(0-t) (in vivo; SFN oral 5 mg/kg): 874 ± 46 ng·h/mL
- half-life (in vivo; SFN oral 5 mg/kg): 5 h
SMILES: C[S+]([O-])CCCCN=C=S (stereo not drawn) [SFN, Sulforaphane]
- concentration at which proliferation decreased (dose-dependent cytotoxicity) [1]: ≥ 5000 ng/mL
- aqueous solubility [2]: ~ 1.85 mg/mL
- concentration above which cytotoxic effects (decreased cell viability) were seen (HaCaT keratinocytes): above 10 µg/mL
- biological half-life [3]: approximately 2.2 h
- scratch wound closure (HDP cells [4]; 1 µg/mL, 16 h): 71.5%
- scratch wound closure (HDP cells [4]; 1 µg/mL, 20 h): 74.9%
- scratch wound closure (HDP cells [4]; 1 µg/mL, 24 h): 94.8%
- scratch wound closure (HDP cells [4]; 25 µg/mL, 16 h): significant cell detachment and reduced recovery
- scratch wound closure (HDP cells [4]; 25 µg/mL, 20 h): remaining below the control
- residual SFN content ([5]; stored at 4 °C): 95.18 ± 0.20%
- residual SFN content ([5]; stored at 26 °C): 78.45 ± 0.28%
- residual SFN content ([5]; stored at −20 °C): 96.56 ± 0.15%
- fraction degraded [6]: ~90%
- relative cell proliferation (HDP cells [7]): approximately 200%
- relative HDP cell migration (untreated control = 100%) (HDP cells [8]; 0.1 µg/mL): 141%
- relative HDP cell migration (untreated control = 100%) (HDP cells [8]; 1 µg/mL): 150%
- relative HDP cell migration (untreated control = 100%) (HDP cells [8]; 25 µg/mL): 16.7%
